Measured values: ChEMBL document CHEMBL4304782, “Antioxidant, Anti-inflammatory, and Neuroprotective Effects of Novel Vinyl Sulfonate Compounds as Nrf2 Activator” (ACS Med Chem Lett, 2019)

Target: T1, Nuclear factor erythroid 2-related factor 2 (Homo sapiens, UniProt Q16236)
T1 sequence (Q16236 whole entry): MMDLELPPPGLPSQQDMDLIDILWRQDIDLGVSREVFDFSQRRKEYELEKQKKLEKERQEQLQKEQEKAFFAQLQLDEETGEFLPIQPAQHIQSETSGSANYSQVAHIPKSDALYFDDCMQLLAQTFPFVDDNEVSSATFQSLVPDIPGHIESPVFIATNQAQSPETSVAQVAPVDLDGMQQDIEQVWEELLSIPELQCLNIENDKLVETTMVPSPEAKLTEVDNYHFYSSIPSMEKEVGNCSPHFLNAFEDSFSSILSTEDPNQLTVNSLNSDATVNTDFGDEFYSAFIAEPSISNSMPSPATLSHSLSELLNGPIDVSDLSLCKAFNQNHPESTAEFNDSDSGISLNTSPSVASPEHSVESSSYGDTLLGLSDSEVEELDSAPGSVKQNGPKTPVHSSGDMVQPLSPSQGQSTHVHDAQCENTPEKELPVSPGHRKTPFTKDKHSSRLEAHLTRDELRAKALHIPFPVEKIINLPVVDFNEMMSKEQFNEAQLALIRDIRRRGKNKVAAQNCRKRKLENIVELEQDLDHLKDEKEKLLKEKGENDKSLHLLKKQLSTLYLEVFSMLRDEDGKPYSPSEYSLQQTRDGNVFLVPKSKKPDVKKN
Test: Activation of ED-tagged Nrf2 in human U2OS cells co-expressing Keap1 assessed as induction of NRF2 translocation to nucleus after 6 hrs by beta-galactosidase based chemiluminescent assay
Assay type: cell-based

EC50 [nM]	Structure (SMILES)
943	COc1cccc(OS(=O)(=O)/C=C/c2cccc(Cl)c2)c1
1780	COc1cccc(OS(=O)(=O)/C=C/c2ccc(Cl)cc2)c1
> 10000	COc1ccc(NS(=O)(=O)/C=C/c2ccccc2Cl)cc1
165	COc1cccc(OS(=O)(=O)/C=C/c2ccccc2Cl)c1
